{"source": "paper PMC10616419", "about": "(The Journal of Biological Chemistry, 2023)", "key": {"[1]": {"molecular_target": "T1, Y511A mutant subunit of rat TRPV1 (YYYA and YYAA concatemers) (Rattus norvegicus, UniProt O35433, Y511A)", "T1 construct": "expressed in transfected cells; host or cells: TSA201 (HEK293T) cells, transient transfection", "type": "cell-based"}, "TRPV1 [2]": {"system": "TRPV1", "details": "cited from earlier work"}, "wildtype mouse TRPV1": {"molecular_target": "T2, wildtype mouse TRPV1 (Mus musculus, UniProt Q704Y3)", "T2 construct": "expressed in transfected cells; host or cells: TSA201 (HEK293T) cells, transient transfection", "test": "cell-based", "type": "cell-based"}, "[3]": {"molecular_target": "T3, YYAA concatemer rat TRPV1 (two Y511A mutant subunits) (Rattus norvegicus, UniProt O35433, Y511A)", "T3 construct": "expressed in transfected cells; host or cells: TSA201 (HEK293T) cells, transient transfection; excised inside-out patches", "type": "cell-based"}, "TRPV1 [4]": {"system": "TRPV1", "type": "cell-based"}, "[5]": {"molecular_target": "T4, YYYA concatemer rat TRPV1 (single Y511A mutant binding site) (Rattus norvegicus, UniProt O35433, Y511A)", "T4 construct": "expressed in transfected cells; host or cells: TSA201 (HEK293T) cells, transient transfection; excised inside-out patches", "type": "cell-based"}, "Y512A mutant mouse TRPV1 [6]": {"molecular_target": "T5, Y512A mutant mouse TRPV1 (Mus musculus, UniProt Q704Y3, Y512A)", "T5 construct": "expressed in transfected cells; host or cells: TSA201 (HEK293T) cells, transient transfection", "test": "cell-based", "type": "cell-based"}, "TRPV1 [7]": {"molecular_target": "TRPV1 (Rattus norvegicus, UniProt O35433)", "details": "cited from earlier work"}, "TRPV1 [8]": {"molecular_target": "TRPV1 (Rattus norvegicus, UniProt O35433, Y511A)", "details": "cited from earlier work"}, "[9]": {"molecular_target": "T4, YYYA concatemer rat TRPV1 (single Y511A mutant binding site)", "details": "cited from earlier work"}, "[10]": {"molecular_target": "T6, Y511A (A) mutant subunit of rat TRPV1 concatemers (Rattus norvegicus, UniProt O35433, Y511A)", "T6 construct": "expressed in transfected cells; host or cells: TSA201 (HEK293T) cells, transient transfection", "type": "cell-based"}, "[11]": {"system": "Y511A mutant subunit of rat TRPV1 (YYYA and YYAA concatemers)", "type": "cell-based"}, "[12]": {"molecular_target": "T7, wildtype (Y) subunit of rat TRPV1 concatemers (Rattus norvegicus, UniProt O35433)", "T7 construct": "expressed in transfected cells; host or cells: TSA201 (HEK293T) cells, transient transfection", "type": "cell-based"}, "Y512A mutant mouse TRPV1 [13]": {"molecular_target": "T5, Y512A mutant mouse TRPV1", "details": "cited from earlier work"}}, "note": "Several values for one entry are separate records, joined by “and”; a condition that tells them apart may be missing. Identical values can stand only once. Like-named read-outs stand apart in the source and are kept apart here.", "data": [{"molecule": "6′-iodo-RTX [6′-iRTX]", "values": [{"measurement": "L", "setting": "[1]", "value": 0.01}, {"measurement": "L with three prebound 6′-iRTX", "setting": "[1]", "value": 0.02}, {"measurement": "L with two prebound 6′-iRTX", "setting": "[1]", "value": 0.02}, {"measurement": "agonist type", "setting": "TRPV1 [2]", "value": "weak partial agonist"}, {"measurement": "binding reversibility", "setting": "wildtype mouse TRPV1", "value": "binds irreversibly"}, {"measurement": "channel activity produced on perfusion", "setting": "wildtype mouse TRPV1", "value": "weak channel activities"}, {"measurement": "L2, equilibrium constant before capsaicin", "setting": "[3]", "value": 0.01}, {"measurement": "L2, equilibrium constant before capsaicin application", "setting": "[3]", "value": 0.008}, {"measurement": "agonist type", "setting": "TRPV1 [4]", "value": "weak agonist"}, {"measurement": "channel activation with three molecules bound", "setting": "[5]", "value": "barely activated"}, {"measurement": "binding reversibility", "setting": "Y512A mutant mouse TRPV1 [6]", "value": "could be washed off"}]}, {"molecule": "NCCOB(c1ccccc1)c1ccccc1", "note": "[2-APB, 2-aminoethoxydiphenyl borate]", "values": [{"measurement": "activation after perfusing 6′-iRTX", "setting": "wildtype mouse TRPV1", "value": "could still activate these channels"}]}, {"molecule": "C=C(C)[C@]12C[C@@H](C)[C@@]34O[C@](Cc5ccccc5)(O[C@@H]1[C@@H]3C=C(COC(=O)Cc1ccc(O)c(OC)c1)C[C@]1(O)C(=O)C(C)=C[C@@H]41)O2", "note": "[RTX, resiniferatoxin]", "values": [{"measurement": "L", "setting": "[1]", "value": 0.96}, {"measurement": "L with two prebound RTX", "setting": "[1]", "value": 0.94}, {"measurement": "binding reversibility", "setting": "TRPV1 [7]", "value": "binds irreversibly"}, {"measurement": "binding reversibility", "setting": "TRPV1 [8]", "value": "can be washed off"}, {"measurement": "L2, equilibrium constant before capsaicin", "setting": "[3]", "value": 0.97}, {"measurement": "L2, equilibrium constant before capsaicin application", "setting": "[3]", "value": 0.96}, {"measurement": "initial Po level with wildtype binding sites preloaded", "setting": "[3]", "value": "approximately 50%"}, {"measurement": "Po with three RTX molecules bound", "setting": "[9]", "value": "approximately 99%"}, {"measurement": "agonist type", "setting": "TRPV1 [4]", "value": "full agonist"}]}, {"molecule": "COc1cc(CNC(=O)CCCC/C=C/C(C)C)ccc1O", "note": "[capsaicin]", "values": [{"measurement": "fA", "setting": "[10]", "value": 12.9}, {"measurement": "capsaicin association constant K", "setting": "[11]", "value": 49000, "unit": "M⁻¹"}, {"measurement": "cooperative factor f", "setting": "[11]", "value": 8.0}, {"measurement": "cooperative factor f", "setting": "[1]", "value": "12.1 and 8.9"}, {"measurement": "EC50", "setting": "wildtype mouse TRPV1", "value": 0.11, "unit": "µM"}, {"measurement": "Kd", "setting": "wildtype mouse TRPV1", "value": 0.244, "unit": "µM"}, {"measurement": "activation after perfusing 6′-iRTX", "setting": "wildtype mouse TRPV1", "value": "lost its activation effect"}, {"measurement": "slope factor (Hill function)", "setting": "wildtype mouse TRPV1", "value": 1.3}, {"measurement": "Hill slope", "setting": "[3]", "value": 0.88}, {"measurement": "Po reached on application of capsaicin", "setting": "[3]", "value": "~100", "unit": "%"}, {"measurement": "a factor (cooperativity between the two capsaicin binding steps; 0.25 = independent)", "setting": "[3]", "value": 0.27}, {"measurement": "cooperative factor f", "setting": "[3]", "value": "8.9 and 11.8"}, {"measurement": "KY", "setting": "[12]", "value": "2.4e+06", "unit": "M⁻¹"}, {"measurement": "EC50", "setting": "Y512A mutant mouse TRPV1 [13]", "value": 13, "unit": "µM"}, {"measurement": "Hill slope", "setting": "[5]", "value": 0.96}, {"measurement": "EC50", "setting": "Y512A mutant mouse TRPV1 [6]", "value": 22, "unit": "µM"}, {"measurement": "Kd", "setting": "Y512A mutant mouse TRPV1 [6]", "value": 52.6, "unit": "µM"}, {"measurement": "slope factor (Hill function)", "setting": "Y512A mutant mouse TRPV1 [6]", "value": 2.3}]}]}
